Assay results as given in ChEMBL document CHEMBL3431459, “Roche carnitine palmitoyltransferase modulator screening data (supplementary data associated with the publication CHEMBL2216752)”.
≈ marks a conversion by molar mass, not a printed value.

Tests used:
[1] = biological target: T1, Carnitine O-palmitoyltransferase 1, muscle isoform (Homo sapiens, UniProt Q92523); test: SUPPLEMENTARY: Inhibition of Carnitine palmitoyltransferase 1, muscle isoform; design: species or system Muscle tissue
T1 sequence (Q92523 whole entry): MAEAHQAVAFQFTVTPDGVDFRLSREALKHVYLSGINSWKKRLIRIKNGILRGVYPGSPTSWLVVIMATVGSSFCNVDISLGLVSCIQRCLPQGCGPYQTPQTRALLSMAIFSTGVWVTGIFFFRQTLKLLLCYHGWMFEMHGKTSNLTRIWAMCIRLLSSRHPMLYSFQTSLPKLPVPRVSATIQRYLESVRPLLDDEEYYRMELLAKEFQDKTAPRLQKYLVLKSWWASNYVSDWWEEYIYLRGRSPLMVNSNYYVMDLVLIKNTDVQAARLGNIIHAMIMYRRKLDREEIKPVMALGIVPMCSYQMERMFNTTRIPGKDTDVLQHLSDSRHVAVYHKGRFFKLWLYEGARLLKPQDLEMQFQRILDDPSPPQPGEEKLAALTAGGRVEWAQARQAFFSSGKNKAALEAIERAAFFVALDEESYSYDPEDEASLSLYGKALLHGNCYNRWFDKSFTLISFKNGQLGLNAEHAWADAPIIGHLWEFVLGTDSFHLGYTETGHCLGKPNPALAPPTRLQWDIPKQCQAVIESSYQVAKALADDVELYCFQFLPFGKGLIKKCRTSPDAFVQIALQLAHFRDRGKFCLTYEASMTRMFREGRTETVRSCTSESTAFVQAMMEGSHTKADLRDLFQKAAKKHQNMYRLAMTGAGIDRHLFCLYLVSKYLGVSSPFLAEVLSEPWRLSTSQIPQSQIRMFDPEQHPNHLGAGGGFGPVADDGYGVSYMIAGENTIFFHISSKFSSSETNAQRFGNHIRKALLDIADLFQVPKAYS

[2] = biological target: T2, Carnitine O-palmitoyltransferase 2, mitochondrial (Homo sapiens, UniProt P23786); test: (§1) SUPPLEMENTARY: Inhibition of Carnitine palmitoyltransferase 2
T2 sequence (P23786 whole entry): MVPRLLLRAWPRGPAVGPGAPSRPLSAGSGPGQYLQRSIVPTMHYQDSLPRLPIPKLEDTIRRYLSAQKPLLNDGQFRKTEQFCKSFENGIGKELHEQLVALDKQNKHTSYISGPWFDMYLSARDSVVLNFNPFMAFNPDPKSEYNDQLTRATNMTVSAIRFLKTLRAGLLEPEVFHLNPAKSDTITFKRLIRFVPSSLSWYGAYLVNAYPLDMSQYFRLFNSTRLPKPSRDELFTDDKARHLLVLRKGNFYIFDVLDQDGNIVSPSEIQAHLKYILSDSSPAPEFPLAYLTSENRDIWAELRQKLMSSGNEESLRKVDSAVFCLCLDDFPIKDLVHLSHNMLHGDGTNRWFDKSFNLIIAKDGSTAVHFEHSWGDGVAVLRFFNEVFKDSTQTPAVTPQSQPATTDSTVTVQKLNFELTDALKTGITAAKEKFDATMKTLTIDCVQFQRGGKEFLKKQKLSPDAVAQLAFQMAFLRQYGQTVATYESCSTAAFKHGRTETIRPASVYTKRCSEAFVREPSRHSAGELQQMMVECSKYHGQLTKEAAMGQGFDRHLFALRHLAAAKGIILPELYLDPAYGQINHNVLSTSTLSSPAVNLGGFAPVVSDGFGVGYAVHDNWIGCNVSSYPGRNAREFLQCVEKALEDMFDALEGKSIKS

[3] = biological target: T3, Carnitine O-palmitoyltransferase 2, mitochondrial (Rattus norvegicus, UniProt P18886); test: as §1
T3 sequence (P18886 whole entry): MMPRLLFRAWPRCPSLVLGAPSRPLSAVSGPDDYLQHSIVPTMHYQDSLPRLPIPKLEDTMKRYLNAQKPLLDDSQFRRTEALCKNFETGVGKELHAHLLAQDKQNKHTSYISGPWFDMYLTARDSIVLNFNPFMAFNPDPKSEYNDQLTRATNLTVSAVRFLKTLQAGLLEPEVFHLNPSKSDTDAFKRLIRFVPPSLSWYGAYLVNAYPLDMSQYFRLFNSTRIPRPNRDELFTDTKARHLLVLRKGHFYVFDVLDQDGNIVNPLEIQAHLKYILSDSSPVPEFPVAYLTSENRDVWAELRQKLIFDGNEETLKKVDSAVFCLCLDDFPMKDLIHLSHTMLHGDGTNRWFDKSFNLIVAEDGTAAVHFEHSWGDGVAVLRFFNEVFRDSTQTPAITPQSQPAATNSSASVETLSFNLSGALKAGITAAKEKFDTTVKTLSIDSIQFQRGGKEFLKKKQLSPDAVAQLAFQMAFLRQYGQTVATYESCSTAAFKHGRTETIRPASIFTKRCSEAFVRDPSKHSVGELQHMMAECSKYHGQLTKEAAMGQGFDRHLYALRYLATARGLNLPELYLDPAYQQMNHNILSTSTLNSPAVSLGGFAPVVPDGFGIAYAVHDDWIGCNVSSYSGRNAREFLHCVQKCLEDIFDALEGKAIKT

[4] = biological target: T4, Carnitine O-palmitoyltransferase 1, liver isoform (Homo sapiens, UniProt P50416); test: (§2) SUPPLEMENTARY: Inhibition of Carnitine palmitoyltransferase 1, liver isoform
T4 sequence (P50416 whole entry): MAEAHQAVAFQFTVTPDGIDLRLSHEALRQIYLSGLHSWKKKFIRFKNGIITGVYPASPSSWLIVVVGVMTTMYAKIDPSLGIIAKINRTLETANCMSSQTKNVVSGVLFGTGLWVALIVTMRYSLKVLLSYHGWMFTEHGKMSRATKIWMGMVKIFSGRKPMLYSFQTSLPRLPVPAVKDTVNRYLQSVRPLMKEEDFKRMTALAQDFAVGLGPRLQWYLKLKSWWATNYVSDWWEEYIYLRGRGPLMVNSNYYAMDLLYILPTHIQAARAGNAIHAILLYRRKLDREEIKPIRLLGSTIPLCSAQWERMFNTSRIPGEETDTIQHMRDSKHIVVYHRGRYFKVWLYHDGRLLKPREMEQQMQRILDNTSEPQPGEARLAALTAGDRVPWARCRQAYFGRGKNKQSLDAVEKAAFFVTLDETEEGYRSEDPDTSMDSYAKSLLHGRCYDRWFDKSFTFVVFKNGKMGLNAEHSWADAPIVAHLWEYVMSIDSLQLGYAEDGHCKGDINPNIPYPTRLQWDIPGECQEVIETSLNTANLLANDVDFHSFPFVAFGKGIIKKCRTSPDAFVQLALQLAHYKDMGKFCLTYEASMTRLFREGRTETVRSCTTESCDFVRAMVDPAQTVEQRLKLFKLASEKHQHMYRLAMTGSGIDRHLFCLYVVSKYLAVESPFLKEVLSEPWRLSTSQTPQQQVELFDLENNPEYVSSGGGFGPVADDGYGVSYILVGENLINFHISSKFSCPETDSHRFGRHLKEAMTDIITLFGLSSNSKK

[5] = biological target: T5, Carnitine O-palmitoyltransferase 1, liver isoform (Rattus norvegicus, UniProt P32198); test: as §2
T5 sequence (P32198 whole entry): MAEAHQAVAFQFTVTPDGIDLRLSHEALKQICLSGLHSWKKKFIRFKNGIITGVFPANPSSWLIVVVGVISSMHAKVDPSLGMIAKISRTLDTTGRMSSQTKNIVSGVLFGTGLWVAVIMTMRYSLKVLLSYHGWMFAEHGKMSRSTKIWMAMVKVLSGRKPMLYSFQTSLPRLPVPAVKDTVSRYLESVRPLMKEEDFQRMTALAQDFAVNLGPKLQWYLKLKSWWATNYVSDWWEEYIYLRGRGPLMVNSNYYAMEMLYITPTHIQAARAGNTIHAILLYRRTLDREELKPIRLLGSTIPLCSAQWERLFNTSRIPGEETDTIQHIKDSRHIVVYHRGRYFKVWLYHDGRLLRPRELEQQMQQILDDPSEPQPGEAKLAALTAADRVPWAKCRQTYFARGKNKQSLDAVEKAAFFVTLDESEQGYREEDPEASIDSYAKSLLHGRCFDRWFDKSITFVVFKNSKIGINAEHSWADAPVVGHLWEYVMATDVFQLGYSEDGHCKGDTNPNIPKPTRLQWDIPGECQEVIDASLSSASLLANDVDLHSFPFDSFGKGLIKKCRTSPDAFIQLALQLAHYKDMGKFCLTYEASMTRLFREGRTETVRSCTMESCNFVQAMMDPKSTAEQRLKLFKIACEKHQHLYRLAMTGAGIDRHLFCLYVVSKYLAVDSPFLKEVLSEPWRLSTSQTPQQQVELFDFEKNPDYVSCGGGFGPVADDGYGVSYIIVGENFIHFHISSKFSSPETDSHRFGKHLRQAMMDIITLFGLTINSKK

[6] = SUPPLEMENTARY: Lyophilisation Solubility Assay (LYSA); type: physicochemical; details: read-out: Kinetic_solubility
[7] = SUPPLEMENTARY: Lipophilicity (log D) Determination by high-throughput shake-flask; type: physicochemical; details: octanol/water
[8] = SUPPLEMENTARY: PAMPA permeability assay; type: physicochemical; details: read-out: Permeability

| IC50 [1] | IC50 [2] | IC50 [3] | IC50 [4] | IC50 [5] | solubility kinetic [6] | logD [7] | Papp [8] | SMILES |
| --- | --- | --- | --- | --- | --- | --- | --- | --- |
| > 100000 nM | 1990 nM | 2670 nM | 87.8 nM | 66.6 nM | 242 µg/mL (≈ 487 µM) | 2.38 | 3.16 ×10⁻⁶ cm/s | CN1CCN(c2cc3c(cc2Cl)CN(C(=O)[C@H]2CCCCN2C(=O)COc2ccccc2)C3)CC1 |
| > 100000 nM | > 100000 nM | > 100000 nM | 288 nM | 500 nM | < 1 µg/mL | > 3 | 2.48 ×10⁻⁶ cm/s | COc1ccc(-c2noc([C@H]3CCCCN3C(=O)C#Cc3ccccc3)n2)cc1 |
| > 100000 nM | 24300 nM | 86300 nM | 113 nM | 410 nM | 141 µg/mL (≈ 346 µM) | 1.88 | 3.83 ×10⁻⁶ cm/s | NC(=O)c1cncc(-c2noc([C@H]3CCCCN3C(=O)COc3ccccc3)n2)c1 |
| > 100000 nM | 2670 nM | 6840 nM | 1940 nM |  | 112 µg/mL (≈ 306 µM) | 2.62 | 9.1 ×10⁻⁶ cm/s | CN(Cc1ccccc1)C(=O)[C@H]1CCCCN1C(=O)COc1ccccc1 |
| > 100000 nM | > 100000 nM | > 100000 nM | 658 nM |  | 88 µg/mL (≈ 312 µM) | 0.42 | 0.02 ×10⁻⁶ cm/s | COc1ccc2[nH]cc(C(=O)COc3ccncc3)c2c1 |
| > 100000 nM | 7150 nM | 45600 nM | 824 nM |  | 175 µg/mL (≈ 382 µM) | 1.41 | 4.46 ×10⁻⁶ cm/s | NS(=O)(=O)c1ccc2c(c1)CN(C(=O)[C@H]1CCCCN1C(=O)COc1ccccc1)CC2 |
| > 100000 nM | 21400 nM | 63500 nM | 127 nM |  | 172 µg/mL (≈ 373 µM) | 1.51 | 3.3 ×10⁻⁶ cm/s | O=C1CCC(=O)N1c1cccc(-c2n[nH]c([C@H]3CCCCN3C(=O)COc3ccccc3)n2)c1 |
| > 100000 nM | 34200 nM | > 100000 nM | 315 nM |  | > 467 µg/mL | 1.47 | 8.06 ×10⁻⁶ cm/s | O=C(c1nc([C@H]2CCCCN2C(=O)COc2ccccc2)no1)N1CCOCC1 |

Further lines, the compound ahead of its results:

| SMILES | IC50 [1] | IC50 [2] | IC50 [3] | IC50 [4] | IC50 [5] | solubility kinetic [6] | logD [7] | Papp [8] |
| --- | --- | --- | --- | --- | --- | --- | --- | --- |
| COc1ccc(Cl)cc1S(=O)(=O)N1C[C@H](C)c2ccc(C(=O)Nc3ccc(C(=O)O)cc3)cc21 | 1420 nM | 698 nM | 2130 nM | 75.7 nM | 79.1 nM | 3 µg/mL (≈ 5.99 µM) | 3.01 | 2.83 ×10⁻⁶ cm/s |
| COc1ccc(Cl)cc1CN1C(=O)OCc2ccc(C(=O)Nc3ccc(CC(=O)O)cc3)cc21 | 13000 nM | > 100000 nM | > 100000 nM | 294 nM |  | 44 µg/mL (≈ 91.5 µM) | 0.06 | 1.48 ×10⁻⁶ cm/s |
| COc1ccc(Cl)cc1S(=O)(=O)N1COc2c(C)cc(C(=O)Nc3ccc(CC(=O)O)cc3)cc21 | 2290 nM | > 100000 nM | > 100000 nM | 375 nM |  | 509 µg/mL (≈ 985 µM) | 0.65 | 3.17 ×10⁻⁶ cm/s |
| COc1ccc(Cl)cc1CN1C(=O)OC(C)(C)c2ccc(C(=O)Nc3ccc(CC(=O)O)c(Cl)c3)cc21 | 1870 nM | > 100000 nM | > 100000 nM | 331 nM |  | 25 µg/mL (≈ 46 µM) | 1.83 | 1.36 ×10⁻⁶ cm/s |
| COc1ccc(Cl)cc1S(=O)(=O)N1CCOc2ccc(C(=O)Nc3nc(CC(=O)O)cs3)cc21 | 423 nM | > 100000 nM | > 100000 nM | 50.5 nM |  | 26 µg/mL (≈ 49.6 µM) | -0.01 | 1.62 ×10⁻⁶ cm/s |
| CCc1ccc(CCOc2ccc(CC3SC(=O)NC3=O)cc2)nc1 (stereo unspecified) [PIOGLITAZONE] | > 100000 nM | > 100000 nM | > 100000 nM | > 10000 nM |  | < 1 µg/mL | 4 | 7.49 ×10⁻⁶ cm/s |
| COc1ccc(Cl)cc1S(=O)(=O)N(C)c1cccc(C(=O)Nc2nc(CC(=O)O)cs2)c1 | 1440 nM | > 100000 nM | > 100000 nM | 61.4 nM |  | > 549 µg/mL | 0.02 | 2.48 ×10⁻⁶ cm/s |
| COc1ccc(Cl)cc1S(=O)(=O)N1CC(C(=O)O)Oc2ccc(C(=O)Nc3cccc(F)c3)cc21 (stereo unspecified) |  | > 100000 nM | > 100000 nM | 16.2 nM | 30.1 nM | 521 µg/mL (≈ 1000 µM) | -0.02 | 0.14 ×10⁻⁶ cm/s |
